# Reference: PMC10812521, “Boesenbergia rotunda and Its Pinostrobin for Atopic Dermatitis: Dual 5-Lipoxygenase and Cyclooxygenase-2 Inhibitor and Its Mechanistic Study through Steady-State Kinetics and Molecular Modeling” (Antioxidants, 2024)
# Entries after “also recorded” stand apart in the source; their conditions may differ. Structures can show the parent of a compound that is named as a salt. Where two headings read alike, the source gives them in different places.
# What was measured:
# [1] = system: COX-2; settings: cited from earlier work
# [2] = system: soybean 15-lipoxygenase; set-up: method as in PMID 26048035; settings: tested range of concentrations; cited from earlier work
# [3] = system: LPS-induced RAW264.7 murine macrophage cells; set-up: method as in PMID 26048035; settings: 25 µg/mL; cited from earlier work
# [4] = system: RAW264.7 murine macrophage cells; set-up: method as in PMID 26048035; settings: 25 µg/mL; cited from earlier work
# [5] = system: Staphylococcus aureus; assay: Broth dilution assay (MIC); type: cell-based; settings: pure compounds, inactive at >200 µg/mL
# Protocol: The MIC values were determined using a broth dilution assay. Tetracycline used as an antibiotic was dissolved in 50% ethanol while EOs, extracts, and pinostrobin dissolved in DMSO (0.2% v/v) were suspended in an LB medium to obtain the final concentrations of EOs/extract, pinostrobin, and tetracycline in the range of 0.1562–200 µg/mL. Then, 20 µL of the bacterial culture with an OD600 value of ~0.5 was taken into each tube, which was continuously inoculated. Afterward, the treated culture was incubated at 37 °C for 24 h in a shaking condition (180 rpm). The absorbance was further measured at 600 nm. An LB medium and 0.2% DMSO were used as positive controls, while the cell culture without treatment in an LB medium was used as a negative control. The experiments were performed in triplicate.
# [6] = DPPH radical scavenging activity; settings: pure compounds
# Protocol: Each extract/EOs sample (20 µL) at various concentrations ([…]–5 mg/mL) was placed to a 96-well plate, followed by the addition of 120 µM DPPH solution in methanol (180 µL). The plate was subsequently incubated for 30 min in the dark at 37 °C. After that, the absorbance was measured by a microplate reader at 517 nm. Quercetin and solvent were used as a positive control and a control, respectively. The radical scavenging percentage inhibition against DPPH was calculated using Equation (4). (4) % Inhibition=Absorbance control−Absorbance sample/Absorbance control×100
# [7] = Nitric oxide (NO) radical scavenging activity (Griess reaction); settings: pure compounds
# Protocol: The technique was adapted and modified from the study of Thadhani et al.. The Griess reaction was used to determine the NO radical scavenging activity. The NO radicals were generated from 10 mM sodium nitroprusside (SNP) in phosphate-buffered saline (PBS), pH 7.3. A range of sample concentrations (10 µL, 0.625–5 mg/mL) were reacted with 10 mM SNP in PBS at pH 7.3 (90 µL) at room temperature for 90 min in a 96-well plate under visible polychromatic light. Afterward, 1% sulfanilamide in 5% H3PO4 (50 µL) was added to the preincubated extract, followed by subsequent incubation in a dark condition with ambient temperature for 5 min. Following that, 50 µL of 0.1% w/v N-(1-naphtyl)-ethylenediamine (NED) in distilled water was added to each well before incubating at room temperature for 30 min in a dark condition. The diazotization of sulfanilamide with a nitrite ion occurred, followed by a coupling reaction with NED solution to generate a magenta-colored chromophore. The absorbance was measured using a microplate reader at 540 nm. Quercetin was used as a positive control. […] A solvent was used as a control. The percentage inhibition was calculated using Equation (5). (5) % Inhibition=Absorbance control−Absorbance sample/Absorbance control×100
# [8] = Ferric reducing antioxidant power (FRAP); settings: pure compound
# Protocol: Each extract/EOs sample (10 µL) was added to each well of a 96-well plate at various concentrations (1–5 mg/mL), followed by a freshly prepared FRAP reagent (190 µL). The mixture was then incubated at room temperature for 4 min. Vivid blue resulted from the […]. The absorbance was further measured at 595 nm. The FRAP value (Equation (6)) was determined by calculating the concentration of ferric ions in the samples relative to the calibration curve of FeSO4 (FRAP value in µM FeSO4/mg dry weight of extract). (6) FRAP value=C ×v (mL)/d × c (mg/mL) where C is the calibrated sample concentration, v is the volume sample, d is the dilution factor, and c is the concentration of the tested sample.
# [9] = target: T1, Human recombinant COX-2 (Homo sapiens, UniProt P35354); assay: Cyclooxygenase-2 inhibitory assay; type: biochemical
# T1 construct: purchased Sigma Aldrich C0858; host or cells: insect cells
# T1 sequence (P35354 18-604): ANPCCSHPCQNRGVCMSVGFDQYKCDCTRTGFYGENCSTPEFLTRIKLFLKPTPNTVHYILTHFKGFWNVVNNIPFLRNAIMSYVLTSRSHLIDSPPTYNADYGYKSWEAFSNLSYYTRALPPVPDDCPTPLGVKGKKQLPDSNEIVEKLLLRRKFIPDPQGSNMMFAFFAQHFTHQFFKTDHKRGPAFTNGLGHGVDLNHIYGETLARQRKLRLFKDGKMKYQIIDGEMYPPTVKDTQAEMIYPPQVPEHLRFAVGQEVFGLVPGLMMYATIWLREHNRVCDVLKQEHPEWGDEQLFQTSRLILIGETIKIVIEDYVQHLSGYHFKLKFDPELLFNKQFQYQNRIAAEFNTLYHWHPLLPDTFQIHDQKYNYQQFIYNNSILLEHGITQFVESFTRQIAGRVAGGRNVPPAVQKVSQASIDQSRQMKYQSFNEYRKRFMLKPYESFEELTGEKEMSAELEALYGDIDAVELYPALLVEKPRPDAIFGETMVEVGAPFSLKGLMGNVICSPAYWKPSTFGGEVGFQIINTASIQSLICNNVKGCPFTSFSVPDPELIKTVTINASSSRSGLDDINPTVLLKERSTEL
# Protocol: This method was adapted and modified from Chew et al. (2018). Human recombinant COX-2 expressed in insect cells (Sigma Aldrich, C0858) was used in this experiment. Initially, a solution of 100 mM Tris HCl buffer, pH 8, was plated out in each well of a 96-well plate. Various concentrations of 40 µL samples (dissolved in polysorbate-20 and DMSO) were further added to the plate, followed by the addition of 40 µL of 40 U COX-2 enzyme (in ice-cool 100 mM Tris HCl buffer, pH 8). The mixture was incubated at 25 °C for 15 min under dark condition. Following the incubation, 10 µL of 20 mM N,N,N′,N′-tetramethyl-p-phenylenediamine (TMPD) and 4 µL of 10 µM of arachidonic acid were added to the mixture. Incubation of the mixture was further performed at a subdued light condition for 15 min. Prostaglandin G2 (PGG2) as an intermediate peroxide product was formed by the reaction and further oxidized the TMPD to a purple-colored TMPD complex. The absorbance was measured at 611 nm. The experiments were performed in duplicate wells. […] The percentage of inhibition was calculated by Equation (7), and the IC50 values were determined. (7) % Inhibition=Absorbance control−Absorbance sample/Absorbance control×100
# [10] = target: T2, Human recombinant 5-LOX (Homo sapiens, UniProt P09917); assay: 5-Lipoxygenase inhibitory assay; type: biochemical
# T2 construct: purchased Cayman Chemical
# T2 sequence (P09917 1-674): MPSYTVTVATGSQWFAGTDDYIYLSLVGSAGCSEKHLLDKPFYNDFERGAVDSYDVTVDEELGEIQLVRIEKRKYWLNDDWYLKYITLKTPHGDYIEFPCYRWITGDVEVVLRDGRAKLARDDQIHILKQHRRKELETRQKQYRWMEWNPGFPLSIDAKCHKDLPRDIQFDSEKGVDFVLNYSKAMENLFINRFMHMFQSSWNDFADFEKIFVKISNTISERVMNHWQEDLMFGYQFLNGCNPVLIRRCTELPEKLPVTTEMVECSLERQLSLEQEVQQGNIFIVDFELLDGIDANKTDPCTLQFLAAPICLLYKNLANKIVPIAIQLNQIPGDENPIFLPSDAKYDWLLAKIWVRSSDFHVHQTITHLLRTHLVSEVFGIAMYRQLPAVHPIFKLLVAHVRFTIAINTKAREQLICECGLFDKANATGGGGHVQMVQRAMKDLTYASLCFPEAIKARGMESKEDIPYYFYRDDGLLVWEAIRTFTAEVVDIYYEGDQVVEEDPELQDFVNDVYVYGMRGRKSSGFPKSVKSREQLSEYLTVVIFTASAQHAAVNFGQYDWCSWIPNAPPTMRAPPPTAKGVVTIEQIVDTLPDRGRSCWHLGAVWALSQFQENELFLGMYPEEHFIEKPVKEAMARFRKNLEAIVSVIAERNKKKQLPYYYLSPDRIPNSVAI
# Protocol: We performed this method according to a previous study with some modifications. Human recombinant 5-LOX (Cayman Chemical, E.C. 1.13.11.34, Ann Arbor, MI, USA) was used in this study. Various concentrations of 20 µL of the tested samples (dissolved in polysorbate-20 and DMSO) were plated in a 96-well UV transparent plate followed by the addition of 100 µL of 0.1 M potassium phosphate buffer, pH 6.3. The mixture was maintained at 25 °C before the addition of enzyme. We added 20 µL of 100 U 5-LOX enzyme (in 0.1 M potassium phosphate buffer, pH 6.3) to the sample solution followed by a 4 min incubation at 25 °C. Afterward, the reaction was initiated by adding 10 µL of 1 mM arachidonic acid as a substrate. The incubation was performed at 25 °C for 30 min, and the absorbance was measured at 234 nm using a microplate reader. The nonenzymatic control was used as a background. […] The experiments were performed in two rounds to generate five replicate wells in total. The percentage of inhibition was calculated by Equation (8), and the IC50 values were determined. (8) % Inhibition=Absorbance control−Absorbance sample/Absorbance control×100
# [11] = target: T3, Human recombinant 5-lipoxygenase (Homo sapiens, UniProt P09917); assay: Steady-state inhibition kinetic study of 5-lipoxygenase; type: biochemical; settings: for type of inhibition against 5-LOX: Michaelis-Menten and Lineweaver-Burk plots
# T3 construct: purchased Cayman Chemical
# T3 sequence (P09917 1-674): T2 sequence (P09917 1-674)
# Protocol: The same experimental conditions as described previously for determining enzyme inhibition were applied. The reaction was performed at 25 °C and measured kinetically for 30 min (BioTek Synergy H1 microplate reader, Winooski, VT, USA). […] Furthermore, the enzymes’ velocity was plotted versus the substrate concentration, which was fitted to the Henri–Michaelis–Menten equation. In addition, the data were transformed to fit a double reciprocal plot using the Lineweaver–Burk method. […] All measurements were performed in two rounds of triplicate wells.
# [12] = system: keratinocyte (HaCaT) cells; set-up: method as in earlier work; settings: cited from earlier work
# [13] = topical application, mouse model, 1000 mg/kg; cited from earlier work
# [14] = system: COX-2 and COX-1; set-up: method as in PMID 26626242; settings: cited from earlier work
# [15] = system: 5-LOX; set-up: method as in PMID 17376394; settings: cited from earlier work
# [16] = Staphylococcus aureus, read-out: MIC
# [17] = read-out: COX-2 IC50 (µg/mL) (converted)
compound,measurement,setting,value
COc1ccc2c(c1)c(CC(=O)O)c(C)n2C(=O)c1ccc(Cl)cc1 [indomethacin],COX-2 IC50,[1],0.26 ± 0.03 µg/mL
(–)-pinostrobin,activity towards soybean 15-lipoxygenase,[2],inactive
same,inhibition of NO production,[3],90.84%
same,cytotoxic effect,[4],without a cytotoxic effect
"COc1cc(O)c2c(c1)O[C@H](c1ccccc1)CC2=O [Pinostrobin, pinostrobin]",MIC,[5]; [16],> 200 µg/mL
same,MIC,[5],>200 µg/mL
same,DPPH Radical; IC50,[6],>1000 µg/mL
same,NO Radical; IC50,[7],>1000 µg/mL
same,FRAP (mM FeSO4/g Extract),[8],1.04 ± 0.01 mM FeSO4/g Extract
same,IC50,[9]; read-out: COX-2 IC50,286 µM
same,IC50,[9]; [17],286 µM
same,IC50,[10]; read-out: 5-LOX IC50,0.499 µM
same,IC50,[10]; read-out: 5-LOX IC50 (µg/mL) (converted),0.499 µM
same,fold superior 5-LOX inhibitory activity than BD,[10]; relative to BD,4 fold
same,fold superior 5-LOX inhibitory activity to NDGA,[10]; relative to NDGA,10 fold
same,Ki,[11],2.28 µM
same,type of inhibition against 5-LOX,[11],mixed-type inhibition; also recorded: mixed-type inhibitor
same,IC50 keratinocyte (HaCaT) cells,[12],30.76 µg/mL
same,full maximal inhibitory concentration (IC100) keratinocyte (HaCaT) cells,[12],> 250 µg/mL
same,dermal toxicity,[13],no dermal toxicity was observed
"CCC(=O)OCC(=O)[C@@]1(OC(=O)CC)[C@@H](C)C[C@H]2[C@@H]3CCC4=CC(=O)C=C[C@]4(C)[C@@]3(F)[C@@H](O)C[C@@]21C [BD, betamethasone dipropionate]",IC50,[9]; read-out: COX-2 IC50,240 µM
same,IC50,[9]; [17],240 µM
same,IC50,[10]; 5-LOX IC50 (µM),2.08 µM
same,IC50,[10]; 5-LOX IC50 (µg/mL),2.08 µM
"COc1cc(O)c2c(c1)OC(c1ccccc1)CC2=O (racemic) [racemic pinostrobin, pinostrobin]",COX activity compared with the positive control,[14],comparable to etodolac
same,selectivity COX-2 versus COX-1,[14],more selective for COX-2 than COX-1
"CN(C)[C@@H]1C(O)=C(C(N)=O)C(=O)[C@@]2(O)C(O)=C3C(=O)c4c(O)cccc4[C@@](C)(O)[C@H]3C[C@@H]12 [Tetracycline, tetracycline hydrochloride]",MIC,[5]; [16],3.12 µg/mL
"O=c1c(O)c(-c2ccc(O)c(O)c2)oc2cc(O)cc(O)c12 [Quercetin, Quercetin hydrate]",DPPH Radical; IC50,[6],19.08 ± 1.34 µg/mL
same,IC50,[6],63.1 µM
same,IC50,[7],310 µM
same,NO Radical; IC50,[7],93.58 ± 7.93 µg/mL
"CC(Cc1ccc(O)c(O)c1)C(C)Cc1ccc(O)c(O)c1 (stereo not drawn) [NDGA, nordihydroguaiaretic acid]",type of inhibition against 5-LOX,[11],mixed-type inhibition; also recorded: mixed-type inhibitor
